Measured values as given in the supplement of paper PMC10307832.

Experiments:
Test in all cases: relative viability (nuclei count vs DMSO), 5 days (fraction); higher = more cells survive
[1] = compound: CCCS(=O)(=O)Nc1ccc(F)c(C(=O)c2c[nH]c3ncc(-c4ccc(Cl)cc4)cc23)c1F [Vemurafenib] + C[C@@H](Oc1cc(-c2cnn(C3CCNCC3)c2)cnc1N)c1c(Cl)ccc(F)c1Cl [Crizotinib] (partner 1 µM)
How it was run: (§1)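 Each reported value is a median over duplicate plates. It expresses relative viability: treated-well nuclei count divided by vehicle-well nuclei count. Lung cancer cell lines in 1536-well plates were dosed by pin tool a day after seeding, alone with one drug or with a fixed anchor-drug dose plus five library-drug doses (not always all listed) in √10 steps, and nuclei were counted after 5 days.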

[2] = compound: COc1cccc2cc(-c3nc([C@H]4CC[C@H](C(=O)O)CC4)n4ncnc(N)c34)[nH]c12 [OSI-027] + CC(C)C[C@H](NC(=O)[C@H](Cc1ccccc1)NC(=O)c1cnccn1)B(O)O [Bortezomib] (partner 0.002 µM)
How it was run: as §1

[3] = compound: COc1cccc2cc(-c3nc([C@H]4CC[C@H](C(=O)O)CC4)n4ncnc(N)c34)[nH]c12 [OSI-027] + Cc1cc(Nc2cc(N3CCN(C)CC3)nc(Sc3ccc(NC(=O)C4CC4)cc3)n2)n[nH]1 [Tozasertib] (partner 0.1 µM)
How it was run: as §1

[4] = compound: COc1cccc2cc(-c3nc([C@H]4CC[C@H](C(=O)O)CC4)n4ncnc(N)c34)[nH]c12 [OSI-027] + Nc1nc2[nH]cc(CCc3ccc(C(=O)N[C@@H](CCC(=O)O)C(=O)O)cc3)c2c(=O)[nH]1 [Pemetrexed] (partner 0.2 µM)
How it was run: as §1

NCI-H23 gave a relative viability ([1]; first compound 0.03162 µM) of 0.468, a relative viability ([1]; first compound 0.1 µM) of 0.541 and a relative viability ([1]; first compound 0.3162 µM) of 0.654. For the same cell line, the relative viability ([1]; first compound 1 µM) was 0.465, the relative viability ([2]; first compound 0.01 µM) was 0.967 and the relative viability ([2]; first compound 0.03162 µM) was 0.834. For the same cell line, the relative viability ([2]; first compound 0.1 µM) was 0.944, the relative viability ([2]; first compound 0.3162 µM) was 1.02 and the relative viability ([2]; first compound 1 µM) was 0.656. The relative viability ([3]; first compound 0.01 µM) was 0.636, the relative viability ([3]; first compound 0.03162 µM) was 0.269 and the relative viability ([3]; first compound 0.1 µM) was 0.34. It also gave a relative viability ([3]; first compound 0.3162 µM) of 0.413, a relative viability ([3]; first compound 1 µM) of 0.306 and a relative viability ([4]; first compound 0.01 µM) of 0.617. For the same cell line, the relative viability ([4]; first compound 0.03162 µM) was 0.757, the relative viability ([4]; first compound 0.1 µM) was 0.598 and the relative viability ([4]; first compound 0.3162 µM) was 0.47. The relative viability ([4]; first compound 1 µM) was 0.395.

In the case of NCI-H441, the relative viability ([1]; first compound 0.03162 µM) is reported as 0.705, the relative viability ([1]; first compound 0.1 µM) is reported as 0.684 and the relative viability ([1]; first compound 0.3162 µM) is reported as 0.743. For the same cell line, the relative viability ([1]; first compound 1 µM) was 0.616, the relative viability ([2]; first compound 0.01 µM) was 0.605 and the relative viability ([2]; first compound 0.03162 µM) was 0.254. For the same cell line, the relative viability ([2]; first compound 0.1 µM) was 0.476, the relative viability ([2]; first compound 0.3162 µM) was 0.381 and the relative viability ([2]; first compound 1 µM) was 0.28. The relative viability ([3]; first compound 0.01 µM) was 0.625, the relative viability ([3]; first compound 0.03162 µM) was 0.72 and the relative viability ([3]; first compound 0.1 µM) was 0.629. For the same cell line, the relative viability ([3]; first compound 0.3162 µM) was 0.535, the relative viability ([3]; first compound 1 µM) was 0.489 and the relative viability ([4]; first compound 0.01 µM) was 0.259. For the same cell line, the relative viability ([4]; first compound 0.03162 µM) was 0.213, the relative viability ([4]; first compound 0.1 µM) was 0.285 and the relative viability ([4]; first compound 0.3162 µM) was 0.255. It also gave a relative viability ([4]; first compound 1 µM) of 0.251.

With NCI-H1650 the relative viability ([1]; first compound 0.03162 µM) was 0.922, the relative viability ([1]; first compound 0.3162 µM) was 1.08 and the relative viability ([1]; first compound 1 µM) was 1.01. It also gave a relative viability ([2]; first compound 0.01 µM) of 0.171, a relative viability ([2]; first compound 0.03162 µM) of 0.195 and a relative viability ([2]; first compound 0.1 µM) of 0.206. It also gave a relative viability ([2]; first compound 0.3162 µM) of 0.201, a relative viability ([2]; first compound 1 µM) of 0.19 and a relative viability ([3]; first compound 0.01 µM) of 0.454. It also gave a relative viability ([3]; first compound 0.03162 µM) of 0.347, a relative viability ([3]; first compound 0.1 µM) of 0.36 and a relative viability ([3]; first compound 0.3162 µM) of 0.424. It also gave a relative viability ([3]; first compound 1 µM) of 0.355, a relative viability ([4]; first compound 0.01 µM) of 0.404 and a relative viability ([4]; first compound 0.03162 µM) of 0.361. The relative viability ([4]; first compound 0.1 µM) was 0.369, the relative viability ([4]; first compound 0.3162 µM) was 0.405 and the relative viability ([4]; first compound 1 µM) was 0.475.

NCI-H1734 was tested, and the relative viability ([1]; first compound 0.03162 µM) was 0.665, the relative viability ([1]; first compound 0.1 µM) was 0.684 and the relative viability ([1]; first compound 0.3162 µM) was 0.579. The relative viability ([1]; first compound 1 µM) was 0.516, the relative viability ([2]; first compound 0.01 µM) was 0.958 and the relative viability ([2]; first compound 0.03162 µM) was 0.809. It also gave a relative viability ([2]; first compound 0.1 µM) of 0.852, a relative viability ([2]; first compound 0.3162 µM) of 0.834 and a relative viability ([2]; first compound 1 µM) of 0.47. It also gave a relative viability ([3]; first compound 0.01 µM) of 0.299, a relative viability ([3]; first compound 0.03162 µM) of 0.271 and a relative viability ([3]; first compound 0.1 µM) of 0.265. The relative viability ([3]; first compound 0.3162 µM) was 0.222, the relative viability ([3]; first compound 1 µM) was 0.24 and the relative viability ([4]; first compound 0.01 µM) was 0.416. It also gave a relative viability ([4]; first compound 0.03162 µM) of 0.436, a relative viability ([4]; first compound 0.1 µM) of 0.371 and a relative viability ([4]; first compound 0.3162 µM) of 0.412. For the same cell line, the relative viability ([4]; first compound 1 µM) was 0.386.

HCC-366 gave a relative viability ([1]; first compound 0.03162 µM) of 0.465, a relative viability ([1]; first compound 0.1 µM) of 0.468 and a relative viability ([1]; first compound 1 µM) of 0.412. The relative viability ([2]; first compound 0.01 µM) was 1.18, the relative viability ([2]; first compound 0.03162 µM) was 1.2 and the relative viability ([2]; first compound 0.1 µM) was 1.03. For the same cell line, the relative viability ([2]; first compound 0.3162 µM) was 1.07, the relative viability ([2]; first compound 1 µM) was 0.733 and the relative viability ([3]; first compound 0.01 µM) was 0.13. It also gave a relative viability ([3]; first compound 0.03162 µM) of 0.113, a relative viability ([3]; first compound 0.1 µM) of 0.0867 and a relative viability ([3]; first compound 0.3162 µM) of 0.128. For the same cell line, the relative viability ([3]; first compound 1 µM) was 0.0744, the relative viability ([4]; first compound 0.01 µM) was 0.18 and the relative viability ([4]; first compound 0.03162 µM) was 0.162. It also gave a relative viability ([4]; first compound 0.1 µM) of 0.175, a relative viability ([4]; first compound 0.3162 µM) of 0.186 and a relative viability ([4]; first compound 1 µM) of 0.206.

Cell Line LXF-289 has a relative viability ([1]; first compound 0.03162 µM) of 0.783, a relative viability ([1]; first compound 0.1 µM) of 0.796 and a relative viability ([1]; first compound 0.3162 µM) of 0.838. The relative viability ([1]; first compound 1 µM) was 0.87, the relative viability ([2]; first compound 0.01 µM) was 1.03 and the relative viability ([2]; first compound 0.03162 µM) was 1.05. It also gave a relative viability ([2]; first compound 0.1 µM) of 1.05, a relative viability ([2]; first compound 0.3162 µM) of 0.984 and a relative viability ([2]; first compound 1 µM) of 0.837. The relative viability ([3]; first compound 0.01 µM) was 0.17, the relative viability ([3]; first compound 0.03162 µM) was 0.209 and the relative viability ([3]; first compound 0.1 µM) was 0.201. The relative viability ([3]; first compound 0.3162 µM) was 0.195, the relative viability ([3]; first compound 1 µM) was 0.133 and the relative viability ([4]; first compound 0.01 µM) was 0.939. For the same cell line, the relative viability ([4]; first compound 0.03162 µM) was 0.841, the relative viability ([4]; first compound 0.1 µM) was 1.04 and the relative viability ([4]; first compound 0.3162 µM) was 0.974. For the same cell line, the relative viability ([4]; first compound 1 µM) was 0.837.

Work on ChaGo-K-1 yielded a relative viability ([1]; first compound 0.03162 µM) of 1.07, a relative viability ([1]; first compound 0.1 µM) of 1.14 and a relative viability ([1]; first compound 1 µM) of 1.13. The relative viability ([2]; first compound 0.01 µM) was 0.987, the relative viability ([2]; first compound 0.03162 µM) was 1.17 and the relative viability ([2]; first compound 0.1 µM) was 0.554. The relative viability ([2]; first compound 0.3162 µM) was 0.838, the relative viability ([2]; first compound 1 µM) was 0.762 and the relative viability ([3]; first compound 0.01 µM) was 0.208. For the same cell line, the relative viability ([3]; first compound 0.03162 µM) was 0.222, the relative viability ([3]; first compound 0.1 µM) was 0.203 and the relative viability ([3]; first compound 0.3162 µM) was 0.382. The relative viability ([3]; first compound 1 µM) was 0.172, the relative viability ([4]; first compound 0.01 µM) was 0.259 and the relative viability ([4]; first compound 0.03162 µM) was 0.311. The relative viability ([4]; first compound 0.1 µM) was 0.251, the relative viability ([4]; first compound 0.3162 µM) was 0.337 and the relative viability ([4]; first compound 1 µM) was 0.262.

NCI-H838 showed a relative viability ([1]; first compound 0.03162 µM) of 0.761, a relative viability ([1]; first compound 0.1 µM) of 0.783 and a relative viability ([1]; first compound 1 µM) of 0.928. For the same cell line, the relative viability ([2]; first compound 0.01 µM) was 0.751, the relative viability ([2]; first compound 0.03162 µM) was 0.71 and the relative viability ([2]; first compound 0.1 µM) was 0.78. It also gave a relative viability ([2]; first compound 0.3162 µM) of 0.531, a relative viability ([2]; first compound 1 µM) of 0.325 and a relative viability ([3]; first compound 0.01 µM) of 0.307. It also gave a relative viability ([3]; first compound 0.03162 µM) of 0.482, a relative viability ([3]; first compound 0.1 µM) of 0.264 and a relative viability ([3]; first compound 0.3162 µM) of 0.26. The relative viability ([3]; first compound 1 µM) was 0.214, the relative viability ([4]; first compound 0.01 µM) was 0.245 and the relative viability ([4]; first compound 0.03162 µM) was 0.255. For the same cell line, the relative viability ([4]; first compound 0.1 µM) was 0.249, the relative viability ([4]; first compound 0.3162 µM) was 0.234 and the relative viability ([4]; first compound 1 µM) was 0.214.

With NCI-H1993 the relative viability ([1]; first compound 0.03162 µM) was 0.906, the relative viability ([1]; first compound 0.3162 µM) was 0.935 and the relative viability ([1]; first compound 1 µM) was 0.818. The relative viability ([2]; first compound 0.01 µM) was 1.11, the relative viability ([2]; first compound 0.03162 µM) was 0.898 and the relative viability ([2]; first compound 0.1 µM) was 0.788. For the same cell line, the relative viability ([2]; first compound 0.3162 µM) was 0.625, the relative viability ([2]; first compound 1 µM) was 0.542 and the relative viability ([3]; first compound 0.01 µM) was 0.574. It also gave a relative viability ([3]; first compound 0.03162 µM) of 0.56, a relative viability ([3]; first compound 0.1 µM) of 0.546 and a relative viability ([3]; first compound 0.3162 µM) of 0.49. For the same cell line, the relative viability ([3]; first compound 1 µM) was 0.456, the relative viability ([4]; first compound 0.01 µM) was 0.533 and the relative viability ([4]; first compound 0.03162 µM) was 0.41. The relative viability ([4]; first compound 0.1 µM) was 0.522, the relative viability ([4]; first compound 0.3162 µM) was 0.465 and the relative viability ([4]; first compound 1 µM) was 0.45.
